Source: US20180245048A1, “METHODS AND COMPOSITIONS FOR EXPANSION AND DIFFERENTIATION OF SKELETAL MUSCLE STEM CELLS OR PROGENITOR CELLS” (AGENCY FOR SCIENCE, TECHNOLOGY AND RESEARCH, priority 2015, published 2018)

How the values were obtained:
[1] = tested on: induced pluripotent stem cell-derived myoblasts; experiment: PAX7 mRNA expression in induced pluripotent stem cell-derived myoblasts; type: cell-based, human; settings: 20 ng/ml bFGF, 3 μM CHIR99021, 2.5 μg/ml DLL1, alone or combined; vs untreated control (FIG. 1)
[2] = tested on: induced pluripotent stem cell-derived myotubes; experiment: qPCR screen of myogenic differentiation markers, 70 small molecules; type: cell-based, human; settings: for MyoD, MyoG and MYHC (myosin heavy chain) expression: each individually, during drug-induced myogenesis from human iPSC (FIG. 9); for expression of differentiated myocyte markers MYOG, MYHC, MYH3, MYH8 and adult myotube markers MYH7, MYH2, MYH1: screen, vs untreated control (FIG. 9)
Method: FIG. 9 is a heat map showing the levels of MYOG, MYHC, MYH3, MYH8, MYH7, MYH2, MYH1 expression in induced pluripotent stem cell-derived myotubes after screening with 70 different small molecules related to the metabolomics findings, compared to an untreated control group.
Thus carnitine to facilitate fatty acid oxidation, the fatty acids linoleate, arachidonate and palmitate to fuel fatty acid oxidation were tested. It was also tested whether statin inhibitors of steroid synthesis, such as fluvastatin, and steroids like testosterone or progesterone could boost human myotube differentiation. Against this background, a variety of other small molecule drugs and metabolites were also screened, including OxPhos inhibitors and vitamins, to test their effects on myotube differentiation. A qPCR screen was then performed for various myogenic differentiation markers on human induced pluripotent stem cell-derived myoblasts exposed to these 70 conditions (FIG. 9).

[3] = tested on: human induced pluripotent stem cell-derived myoblasts; experiment: qPCR screen of lineage markers (OCT3/4, NCAM, AFP, PAX7), 70 small molecules; type: cell-based; settings: vs untreated control (FIG. 3); for PAX7 mRNA expression: during FGF/Wnt/Notch-induced myogenesis
Method: FIG. 3 is a heat map showing the levels of OCT3/4, NCAM, AFP and PAX7 mRNA expression in induced pluripotent stem cell-derived myoblasts after screening with 70 different small molecules related to the metabolomics findings, compared to an untreated control group.
Thus, the adenylyl cyclase agonist Forskolin was tested to induce cAMP synthesis, and cobalamin was administered to see if these compounds boosted the expansion of human myoblasts. It was also tested whether glutamine, hypoxanthine and thymidine—all of which are rate-limiting for nucleotide synthesis—could boost human myoblast expansion. Against this background, a variety of other small molecule drugs and metabolites were screened, including amino acids and fatty acids, thereby testing their effects on myoblast expansion. A real-time polymerase chain reaction (qPCR) screen was then performed for various lineage markers (pluripotency marker OCT3/4, neuromuscular marker NCAM, endoderm marker AFP, muscle marker Pax7) on human induced pluripotent stem cell-derived myoblasts exposed to these 70 conditions (FIG. 3).

Molecule	MyoD, MyoG and MYHC (myosin heavy chain) expression [2]	expression of differentiated myocyte markers MYOG, MYHC, MYH3, MYH8 and adult myotube markers MYH7, MYH2, MYH1 [2]	PAX7 mRNA expression [3]	other results
Cc1cnc(-c2cnc(NCCNc3ccc(C#N)cn3)nc2-c2ccc(Cl)cc2Cl)[nH]1 [CHIR99021, 6-[[2-[[4-(2,4-dichlorophenyl)-5-(5-methyl-1H-imidazol-2-yl)-2 pyrimidinyl]amino]ethyl]amino]-3-pyridinecarbonitrile, reference compound]				PAX7 mRNA expression [1]: increase in PAX7 expression
CC(=O)OC(CC(=O)[O-])C[N+](C)(C)C (centres unmarked) [O-acetyl-carnitine]	specifically increase			
C[N+](C)(C)CC(O)CC(=O)[O-] (centres unmarked) [carnitine]	specifically increase	increase expression		
NC(=O)CC[C@H](N)C(=O)O [glutamine]			specifically increase	AFP (endoderm marker) mRNA expression [3]: without increasing; NCAM (neuromuscular marker) mRNA expression [3]: increase; OCT3/4 (pluripotency marker) mRNA expression [3]: without increasing
O=c1[nH]cnc2nc[nH]c12 [hypoxanthine]			specifically increase	
CCCCC/C=C\C/C=C\CCCCCCCC(=O)O [linoleic acid]	specifically increase	increase expression		
C[C@]12CC[C@H]3[C@@H](CCC4=CC(=O)CC[C@@]43C)[C@@H]1CC[C@@H]2O [testosterone, reference compound]	specifically increase	increase expression		
Cc1cn([C@H]2C[C@H](O)[C@@H](CO)O2)c(=O)[nH]c1=O [thymidine]			specifically increase	
bFGF: FGF2 (basic fibroblast growth factor), FGF signalling agonist				PAX7 mRNA expression [1]: increase in PAX7 expression
cobalamin [vitamin B12]			increase	PAX7 mRNA expression ([3]; listed as cobalamin): specifically increase; AFP (endoderm marker) mRNA expression [3]: without increasing; NCAM (neuromuscular marker) mRNA expression [3]: increase; OCT3/4 (pluripotency marker) mRNA expression [3]: without increasing
